Reference: PubChem BioAssay (NCI)
Where “and” joins values, the source holds several entries; their conditions need not be identical. Identical values can stand only once.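 In this assay, cells in 96-well plates receive the compound at five concentrations for 48 hours. Endpoints are linearly interpolated between the surrounding concentrations. GI50: concentration for 50% inhibition of growth. TGI: concentration producing complete growth inhibition.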

Experiments:
Test in all cases: NCI tumour cell line growth inhibition, 48 h
[1] = tested on: KM12 colon
[2] = tested on: M14 melanoma
[3] = tested on: NCI-H460 lung
[4] = tested on: PC-3 prostate
[5] = tested on: SF-268 CNS
[6] = tested on: SF-539 CNS
[7] = tested on: HOP-92 NSCLC
[8] = tested on: RXF 393 renal
[9] = tested on: SR leukemia
[10] = tested on: CAKI-1 renal

## COc1ccc2nc(-c3ccccc3)cc(Nc3ccc(C(C)=O)cc3)c2c1
[1]
  GI50: 1.88 µM
  TGI: 5.2 µM
[2]
  GI50: 2.61 µM
  TGI: 7.25 µM
[3]
  GI50: 5.73 µM
  TGI: 19.3 µM
[4]
  GI50: 1.16 µM
  TGI: 4.63 µM
[5]
  GI50: 7.51 µM
  TGI: 31 µM
[6]
  GI50: 2.37 µM
  TGI: 4.21 µM

## COc1ccc2c([nH]c3cc(O)c(C)cc32)c1C=O
[7]
  TGI: > 25 µM
[1]
  TGI: > 25 µM
[2]
  TGI: > 25 µM
[3]
  TGI: > 25 µM
[8]
  TGI: > 25 µM
[5]
  TGI: > 25 µM
[6]
  TGI: > 25 µM
[9]
  TGI: > 25 µM

## O=C(Nc1ccc(-n2cc(-c3ccncc3)c(-c3ccc(Cl)c(O)c3)n2)cc1)Nc1cc(C(F)(F)F)cc(C(F)(F)F)c1
[10]
  GI50: 1.77 µM
  TGI: 3.57 µM
[7]
  GI50: 1.34 µM
  TGI: 3.99 µM
[1]
  GI50: 1.6 µM
  TGI: 3.15 µM
[2]
  GI50: 1.76 µM
  TGI: 3.56 µM
[3]
  GI50: 1.92 µM
  TGI: 3.85 µM
[4]
  GI50: 2.05 µM
  TGI: 6.1 µM
[8]
  GI50: 1.45 µM
  TGI: 3.45 µM
[5]
  GI50: 1.62 µM
  TGI: 3.27 µM
[6]
  GI50: 1.94 µM
  TGI: 6.4 µM

## CC(=O)NC1=C(Nc2ccc(C)cc2)C(=O)c2ccccc2C1=O
[10]
  TGI: > 75 µM
[1]
  TGI: > 75 µM
[2]
  TGI: 25.3 µM
[3]
  TGI: 22.9 µM
[8]
  TGI: > 75 µM
[5]
  TGI: > 75 µM
[6]
  TGI: 33 µM

## O=C1CCCCCCCCCCC(=O)C2CCOCCOCCOCCC1Cc1cccc(n1)C2
[10]
  TGI: > 100 µM
[1]
  TGI: > 100 µM
[2]
  TGI: > 100 µM
[3]
  TGI: > 100 µM
[8]
  TGI: > 100 µM
[5]
  TGI: > 100 µM
[6]
  TGI: > 100 µM

## CCCCCCCCCCC(C)CCCCCCC(=O)OCC(COP(=O)([O-])OCC[N+](C)(C)C)OC(=O)CCCCCCC(C)CCCCCCCCCC (stereo not given)
[10]
  TGI: > 100 µM
[7]
  TGI: > 100 µM
[1]
  TGI: > 100 µM
[2]
  TGI: > 100 µM
[3]
  TGI: > 100 µM
[8]
  TGI: > 100 µM
[5]
  TGI: > 100 µM
[9]
  TGI: > 100 µM

## COc1cc2c(c(OC)c1OC)-c1ccc(SC)c(=O)cc1[C@@H](NC(=O)c1ccc(OC(C)=O)cc1)CC2
[10]
  TGI: > 100 µM
[7]
  TGI: 0.0311 µM
[1]
  TGI: 0.0407 µM
[3]
  TGI: 0.0206 µM
[8]
  TGI: 0.0813 µM
[5]
  TGI: 24.8 µM
[6]
  TGI: 0.0357 µM
[9]
  GI50: 0.00773 µM
  TGI: 23.9 µM

## C1CNCCNCCNCCN1
[1]
  TGI: > 100 µM
[2]
  TGI: > 100 µM
[3]
  TGI: > 100 µM
[8]
  TGI: > 100 µM
[6]
  TGI: > 100 µM
[9]
  TGI: > 100 µM

## Cn1ccc2c(NCCN)c3c(c(NCCN)c21)C(=O)c1ccccc1C3=O
[10]
  GI50: 2.51 µM
  TGI: 9.48 µM
[7]
  GI50: 0.718 µM
  TGI: 2.58 µM
[1]
  GI50: 0.551 µM
  TGI: 5.71 µM
[2]
  GI50: 2.32 µM
  TGI: 8.68 µM
[3]
  GI50: 0.448 µM
  TGI: 2.24 µM
[4]
  GI50: 0.494 µM
  TGI: 3.18 µM
[8]
  GI50: 1.5 µM
  TGI: 3.67 µM
[5]
  GI50: 1.47 µM
  TGI: 7.11 µM
[6]
  GI50: 0.291 µM
  TGI: 1.55 µM

## CC(=O)C1CC2(c3ccc(C)cc3)C(c3ccc(C)cc3)=C(c3ccc(C)cc3)C1(c1ccc(C)cc1)S2=O (stereo not given)
[10]
  GI50: > 100 µM
  TGI: > 100 µM
[1]
  GI50: > 100 µM
  TGI: > 100 µM
[2]
  GI50: > 100 µM
  TGI: > 100 µM
[3]
  GI50: > 100 µM
  TGI: > 100 µM
[4]
  GI50: > 100 µM
  TGI: > 100 µM
[8]
  GI50: > 100 µM
  TGI: > 100 µM
[5]
  GI50: > 100 µM
  TGI: > 100 µM
[6]
  GI50: > 100 µM
  TGI: > 100 µM

## CC([C@H]1CCC2C3CCC4C[C@@H](NC=O)CC[C@]4(C)C3CC[C@@]21C)N(C)C (stereo not given in full)
[10]
  GI50: 4.26 µM
  TGI: 11.9 µM
[7]
  GI50: 1.13 µM
  TGI: 7.61 µM
[1]
  GI50: 3.14 µM
  TGI: 12.6 µM
[2]
  GI50: 1.87 µM
  TGI: 3.55 µM
[3]
  GI50: 1.89 µM
  TGI: 4.04 µM
[4]
  GI50: 2.47 µM
  TGI: 16.4 µM
[8]
  GI50: 1.77 µM
  TGI: 4.15 µM
[5]
  GI50: 1.7 µM
  TGI: 3.93 µM
[6]
  GI50: 1.37 µM
  TGI: 2.79 µM

## O=C1/C(=C/c2ccc(O)c([N+](=O)[O-])c2)CCC/C1=C\c1ccc(O)c([N+](=O)[O-])c1
[10]
  TGI: 20.4 µM
[1]
  GI50: 1.97 µM
  TGI: 18.4 µM and 9.42 µM
[2]
  GI50: 14.6 µM
  TGI: 31.8 µM and 29.7 µM
[3]
  TGI: 31.6 µM
[4]
  GI50: 9.12 µM
  TGI: 50 µM and 22.8 µM
[8]
  GI50: 1.53 µM
  TGI: 19.6 µM and 5.91 µM
[5]
  TGI: 19.9 µM
[6]
  TGI: 50 µM

## C=CC[C@H]1C[C@@]2(C)OC[C@H](C(C)C)N2C1=O
[10]
  TGI: > 100 µM
[7]
  TGI: > 100 µM
[1]
  TGI: > 100 µM
[3]
  TGI: > 100 µM
[8]
  TGI: > 100 µM
[5]
  TGI: > 100 µM
[6]
  TGI: > 100 µM
[9]
  TGI: > 100 µM

## C=C1C(=O)O[C@@H]2C1C[C@@H](O)/C(C)=C/C/C=C(\C)CCC[C@H](C)[C@H]2OC(C)=O (stereo not given in full)
[10]
  GI50: 32.8 µM
  TGI: > 100 µM
[1]
  GI50: 20.8 µM
  TGI: 41.7 µM
[2]
  GI50: 19.4 µM
  TGI: 44.1 µM
[3]
  GI50: > 100 µM
  TGI: > 100 µM
[4]
  GI50: 21.4 µM
  TGI: 51.3 µM
[8]
  GI50: 19.3 µM
  TGI: 50.2 µM
[5]
  GI50: 33.9 µM
  TGI: > 100 µM
[6]
  GI50: 20.4 µM
  TGI: 39.9 µM

## CC(=O)[CH-]C(=O)c1ccccc1.CC(=O)[CH-]C(=O)c1ccccc1.CC(=O)[CH-]C(=O)c1ccccc1.[Tl+3]
[10]
  GI50: 75 µM
  TGI: > 100 µM
[7]
  GI50: 40.6 µM
  TGI: > 85.7 µM
[1]
  GI50: 42.8 µM
  TGI: > 100 µM
[2]
  GI50: 24.7 µM
  TGI: > 93 µM
[3]
  GI50: 22.6 µM
  TGI: > 100 µM
[8]
  GI50: 56.2 µM
  TGI: > 100 µM
[5]
  GI50: 29.3 µM
  TGI: > 100 µM
[6]
  GI50: 36.9 µM
  TGI: > 100 µM

## Cc1nc2c(=O)[nH]c(=O)n(C)c2[nH]c1=O
[10]
  TGI: > 100 µM
[7]
  TGI: > 100 µM
[1]
  TGI: > 100 µM
[2]
  TGI: > 100 µM
[3]
  TGI: > 100 µM
[8]
  TGI: > 100 µM
[5]
  TGI: > 100 µM
[9]
  TGI: > 100 µM

## O=C1CCCCCCCC/C=C/CCC(c2ccco2)O1 (stereo not given)
[10]
  GI50: > 100 µM
  TGI: > 100 µM
[7]
  GI50: 50.5 µM
  TGI: > 100 µM
[1]
  GI50: 20.7 µM
  TGI: > 100 µM
[2]
  GI50: 67.7 µM
  TGI: > 100 µM
[3]
  GI50: > 100 µM
  TGI: > 100 µM
[4]
  GI50: 77.8 µM
  TGI: > 100 µM
[8]
  GI50: > 100 µM
  TGI: > 100 µM
[5]
  GI50: 44.3 µM
  TGI: > 100 µM
[6]
  GI50: 60.5 µM
  TGI: > 100 µM
